{
  "source": "patent US10934296B2",
  "about": "“4-imidazopyridazin-1-yl-benzamides as Btk inhibitors” (Merck Sharp & Dohme B.V., priority 2011, dated 2021)",
  "key": {"[1]": {"biological_target": "Lck enzyme (Homo sapiens (Human), UniProt P06239)", "sequence (P06239 whole entry)": "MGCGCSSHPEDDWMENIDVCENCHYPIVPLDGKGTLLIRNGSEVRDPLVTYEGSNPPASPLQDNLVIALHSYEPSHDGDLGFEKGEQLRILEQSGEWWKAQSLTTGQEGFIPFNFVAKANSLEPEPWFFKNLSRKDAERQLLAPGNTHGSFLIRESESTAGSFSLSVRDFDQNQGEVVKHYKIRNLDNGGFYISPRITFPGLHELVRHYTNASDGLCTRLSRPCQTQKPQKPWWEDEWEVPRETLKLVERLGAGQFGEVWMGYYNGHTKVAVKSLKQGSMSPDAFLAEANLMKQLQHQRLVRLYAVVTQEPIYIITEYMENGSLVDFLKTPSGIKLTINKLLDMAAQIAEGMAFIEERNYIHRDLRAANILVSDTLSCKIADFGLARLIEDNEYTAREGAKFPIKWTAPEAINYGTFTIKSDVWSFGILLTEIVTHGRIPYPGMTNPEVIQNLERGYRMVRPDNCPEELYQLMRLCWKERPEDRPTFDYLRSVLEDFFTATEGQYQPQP", "test": "Lck enzyme activity, IMAP fluorescence polarization assay", "conditions": "60 min pre-incubation, 6 μM ATP, bin bounds in μM"}, "[2]": {"biological_target": "Lyn enzyme (Homo sapiens (Human), UniProt P07948)", "sequence (P07948 whole entry)": "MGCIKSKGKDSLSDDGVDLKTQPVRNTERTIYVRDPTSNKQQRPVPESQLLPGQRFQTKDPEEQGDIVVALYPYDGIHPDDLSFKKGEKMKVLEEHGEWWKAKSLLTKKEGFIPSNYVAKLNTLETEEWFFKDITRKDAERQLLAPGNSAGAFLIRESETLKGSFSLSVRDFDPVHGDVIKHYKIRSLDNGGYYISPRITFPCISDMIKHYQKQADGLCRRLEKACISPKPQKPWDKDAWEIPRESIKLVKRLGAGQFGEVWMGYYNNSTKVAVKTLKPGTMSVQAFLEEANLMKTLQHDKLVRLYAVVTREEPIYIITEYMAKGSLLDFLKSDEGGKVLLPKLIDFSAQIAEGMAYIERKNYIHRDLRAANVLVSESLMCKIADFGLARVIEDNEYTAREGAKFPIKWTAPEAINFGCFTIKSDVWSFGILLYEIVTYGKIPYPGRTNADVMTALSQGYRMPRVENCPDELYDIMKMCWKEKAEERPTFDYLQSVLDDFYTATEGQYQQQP", "test": "Lyn enzyme activity, IMAP fluorescence polarization assay", "conditions": "60 min pre-incubation, 2 μM ATP, bin bounds in μM"}, "[3]": {"biological_target": "Btk enzyme (His-Btk) (Homo sapiens (Human), UniProt Q06187)", "sequence (Q06187 whole entry)": "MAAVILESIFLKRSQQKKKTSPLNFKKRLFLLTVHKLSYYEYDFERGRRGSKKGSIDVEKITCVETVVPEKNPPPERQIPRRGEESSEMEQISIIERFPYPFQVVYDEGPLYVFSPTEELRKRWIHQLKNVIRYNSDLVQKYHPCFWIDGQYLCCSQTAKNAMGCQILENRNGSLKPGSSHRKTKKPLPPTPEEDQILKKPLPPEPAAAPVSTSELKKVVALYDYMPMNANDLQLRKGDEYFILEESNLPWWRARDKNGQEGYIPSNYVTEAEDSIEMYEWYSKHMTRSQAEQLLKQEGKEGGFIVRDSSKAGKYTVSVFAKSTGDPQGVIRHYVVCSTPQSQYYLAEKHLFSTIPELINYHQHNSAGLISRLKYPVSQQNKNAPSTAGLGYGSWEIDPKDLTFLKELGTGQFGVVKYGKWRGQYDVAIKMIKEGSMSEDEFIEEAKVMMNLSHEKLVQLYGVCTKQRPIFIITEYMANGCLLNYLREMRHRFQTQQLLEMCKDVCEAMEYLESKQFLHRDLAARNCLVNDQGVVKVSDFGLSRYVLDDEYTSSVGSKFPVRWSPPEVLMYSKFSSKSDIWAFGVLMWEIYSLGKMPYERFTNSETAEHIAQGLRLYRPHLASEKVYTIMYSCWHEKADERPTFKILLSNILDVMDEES", "test": "Btk enzyme activity, IMAP fluorescence polarization assay", "conditions": "60 min pre-incubation, 5 μM ATP, bin bounds in nM"}},
  "data": [
    {"molecule": "CC#CC(=O)N1CCC[C@H]1c1nc(-c2ccc(C(=O)Nc3nccs3)cc2)c2c(N)nccn12", "note": "[Example 60, (S)-4-(8-amino-3-(1-but-2-ynoylpyrrolidin-2-yl)imidazo[1,5-a]pyrazin-1-yl)-N-(thiazol-2-yl)benzamide]", "values": [
      {"measurement": "EC50 Lck activity values", "setting": "[1]", "result": "<1", "unit": "µM"},
      {"measurement": "EC50 Lyn activity values", "setting": "[2]", "result": "<1", "unit": "µM"},
      {"measurement": "EC50 Btk activity values", "setting": "[3]", "result": "<100", "unit": "nM"}
    ]},
    {"molecule": "C=CC(=O)N1CCC[C@H]1c1nc(-c2ccc(C(=O)Nc3cc(CCC)ccn3)cc2)c2c(N)nccn12", "note": "[Example 125, (S)-4-(3-(1-acryloylpyrrolidin-2-yl)-8-aminoimidazo[1,5-a]pyrazin-1-yl)-N-(4-propylpyridin-2-yl)benzamide]", "values": [
      {"measurement": "EC50 Lck activity values", "setting": "[1]", "result": "<1", "unit": "µM"},
      {"measurement": "EC50 Lyn activity values", "setting": "[2]", "result": "<1", "unit": "µM"}
    ]},
    {"molecule": "C=CC(=O)N1CCC[C@H]1c1nc(-c2ccc(C(=O)Nc3cc(C)ccn3)cc2)c2c(N)nccn12", "note": "[Example 124, (S)-4-(3-(1-acryloylpyrrolidin-2-yl)-8-aminoimidazo[1,5-a]pyrazin-1-yl)-N-(4-methylpyridin-2-yl)benzamide]", "values": [
      {"measurement": "EC50 Lck activity values", "setting": "[1]", "result": "<1", "unit": "µM"},
      {"measurement": "EC50 Lyn activity values", "setting": "[2]", "result": "<1", "unit": "µM"}
    ]}
  ]
}
